Assay results: patent US11813285B2, “Stable pharmaceutical composition comprising esomeprazole and sodium bicarbonate” (CHONG KUN DANG PHARMACEUTICAL CORP., priority 2018, dated 2023)
Read-outs that look alike come from different tables or passages of the source.

How the values were obtained:
[1] = Stability test of esomeprazole and omeprazole according to pH; assay type: physicochemical; conditions: in % (unit assumed)
Experimental: <Analysis method> A) Detector: UV-Visible spectrophotometer (measurement wavelength:280 nm) B) Column: Inertsil C8-3 (4.6×150 mm, 5 μm) or equivalent column C) Injection amount: 20 μl D) Flow rate: 1.5 mL/min E) Column temperature: Constant temperature near 40° C. F) Sample temperature: Constant temperature near 10° C. […] H) Mobile phase: […] The buffer solution at pH 7.6 was prepared as follows: 0.725 g of sodium dihydrogen phosphate monohydrate (NaH2PO4.H2O) and 4.472 g of anhydrous disodium hydrogen phosphate (Na2HPO4) were weighed to be put in an 1 L volumetric flask and dissolved in purified water, followed by filling the flask with purified water up to the calibration mark. 250 mL of the liquid was taken to be put in an 1 L volumetric flask, followed by filling the flask with purified water up to the calibration mark and adjusting the pH to 7.6 with phosphoric acid.

[2] = for pH of simulated gastric juice: 200 mL simulated gastric juice + 200 mL purified water, 37° C.
Experimental: A pH was measured according to the change of the dose of sodium bicarbonate in a solution (37° C.) where 200 mL of purified water was put in 200 mL of simulated gastric juice.

## COc1ccc2[nH]c([S+]([O-])Cc3ncc(C)c(OC)c3C)nc2c1 (centres unmarked) [Omeprazole, 5-methoxy-2-[(4-methoxy-3,5-dimethyl-2-pyridinyl)methyl]sulfinyl-1H-benzimidazol]
[1]; buffer pH 4.0, 5 min
  assay of esomeprazole and omeprazole according to pH: 57.2
[1]; buffer pH 4.0, 10 min
  assay of esomeprazole and omeprazole according to pH: 29.4
[1]; buffer pH 4.0, 15 min
  assay of esomeprazole and omeprazole according to pH: 15.3
[1]; buffer pH 4.0, 30 min
  assay of esomeprazole and omeprazole according to pH: 6.7
[1]; buffer pH 4.0, 45 min
  assay of esomeprazole and omeprazole according to pH: 1.6
[1]; buffer pH 4.0, 60 min
  assay of esomeprazole and omeprazole according to pH: 0.8
[1]; buffer pH 4.0, 120 min
  assay of esomeprazole and omeprazole according to pH: 0.1
[1]; buffer pH 6.0, 5 min
  assay of esomeprazole and omeprazole according to pH: 74.9
[1]; buffer pH 6.0, 10 min
  assay of esomeprazole and omeprazole according to pH: 74.2
[1]; buffer pH 6.0, 15 min
  assay of esomeprazole and omeprazole according to pH: 71.7
[1]; buffer pH 6.0, 30 min
  assay of esomeprazole and omeprazole according to pH: 69.6
[1]; buffer pH 6.0, 45 min
  assay of esomeprazole and omeprazole according to pH: 65.4
[1]; buffer pH 6.0, 60 min
  assay of esomeprazole and omeprazole according to pH: 64.1
[1]; buffer pH 6.0, 120 min
  assay of esomeprazole and omeprazole according to pH: 55.1
[1]; buffer pH 6.8, 5 min
  assay of esomeprazole and omeprazole according to pH: 91.5
[1]; buffer pH 6.8, 10 min
  assay of esomeprazole and omeprazole according to pH: 90.5
[1]; buffer pH 6.8, 15 min
  assay of esomeprazole and omeprazole according to pH: 89.9
[1]; buffer pH 6.8, 30 min
  assay of esomeprazole and omeprazole according to pH: 89.8
[1]; buffer pH 6.8, 45 min
  assay of esomeprazole and omeprazole according to pH: 88.8
[1]; buffer pH 6.8, 60 min
  assay of esomeprazole and omeprazole according to pH: 88.3
[1]; buffer pH 6.8, 120 min
  assay of esomeprazole and omeprazole according to pH: 85.5
[1]; buffer pH 7.0, 5 min
  assay of esomeprazole and omeprazole according to pH: 100.5
[1]; buffer pH 7.0, 10 min
  assay of esomeprazole and omeprazole according to pH: 99.0
[1]; buffer pH 7.0, 15 min
  assay of esomeprazole and omeprazole according to pH: 98.9
[1]; buffer pH 7.0, 30 min
  assay of esomeprazole and omeprazole according to pH: 98.2
[1]; buffer pH 7.0, 45 min
  assay of esomeprazole and omeprazole according to pH: 97.9
[1]; buffer pH 7.0, 60 min
  assay of esomeprazole and omeprazole according to pH: 97.5
[1]; buffer pH 7.0, 120 min
  assay of esomeprazole and omeprazole according to pH: 95.8
[1]; buffer pH 7.3, 5 min
  assay of esomeprazole and omeprazole according to pH: 99.8
[1]; buffer pH 7.3, 10 min
  assay of esomeprazole and omeprazole according to pH: 100.0
[1]; buffer pH 7.3, 15 min
  assay of esomeprazole and omeprazole according to pH: 99.9
[1]; buffer pH 7.3, 30 min
  assay of esomeprazole and omeprazole according to pH: 99.8
[1]; buffer pH 7.3, 45 min
  assay of esomeprazole and omeprazole according to pH: 99.8
[1]; buffer pH 7.3, 60 min
  assay of esomeprazole and omeprazole according to pH: 99.8
[1]; buffer pH 7.3, 120 min
  assay of esomeprazole and omeprazole according to pH: 99.86
[1]; buffer pH 7.5, 5 min
  assay of esomeprazole and omeprazole according to pH: 100.5
[1]; buffer pH 7.5, 10 min
  assay of esomeprazole and omeprazole according to pH: 99.7
[1]; buffer pH 7.5, 15 min
  assay of esomeprazole and omeprazole according to pH: 99.7
[1]; buffer pH 7.5, 30 min
  assay of esomeprazole and omeprazole according to pH: 99.4
[1]; buffer pH 7.5, 45 min
  assay of esomeprazole and omeprazole according to pH: 99.2
[1]; buffer pH 7.5, 60 min
  assay of esomeprazole and omeprazole according to pH: 98.9
[1]; buffer pH 7.5, 120 min
  assay of esomeprazole and omeprazole according to pH: 98.2
[1]; buffer pH 8.0, 15 min
  assay of esomeprazole and omeprazole according to pH: 99.7
[1]; buffer pH 8.0, 30 min
  assay of esomeprazole and omeprazole according to pH: 99.6
[1]; buffer pH 8.0, 45 min
  assay of esomeprazole and omeprazole according to pH: 99.5
[1]; buffer pH 8.0, 60 min
  assay of esomeprazole and omeprazole according to pH: 99.5
[1]; buffer pH 8.0, 120 min
  assay of esomeprazole and omeprazole according to pH: 98.6

## COc1ccc2[nH]c([S@@+]([O-])Cc3ncc(C)c(OC)c3C)nc2c1 [S-omeprazole, (S)-5-methoxy-2-[(4-methoxy-3,5-dimethyl-2-pyridinyl)-methyl]sulfinyl-1H-benzimidazol]
[1]; buffer pH 4.0, 5 min
  assay of esomeprazole and omeprazole according to pH: 64.1
[1]; buffer pH 4.0, 10 min
  assay of esomeprazole and omeprazole according to pH: 31.0
[1]; buffer pH 4.0, 15 min
  assay of esomeprazole and omeprazole according to pH: 15.9
[1]; buffer pH 4.0, 30 min
  assay of esomeprazole and omeprazole according to pH: 6.9
[1]; buffer pH 4.0, 45 min
  assay of esomeprazole and omeprazole according to pH: 1.7
[1]; buffer pH 4.0, 60 min
  assay of esomeprazole and omeprazole according to pH: 0.9
[1]; buffer pH 4.0, 120 min
  assay of esomeprazole and omeprazole according to pH: 0.1
[1]; buffer pH 6.0, 5 min
  assay of esomeprazole and omeprazole according to pH: 74.4
[1]; buffer pH 6.0, 10 min
  assay of esomeprazole and omeprazole according to pH: 72.8
[1]; buffer pH 6.0, 15 min
  assay of esomeprazole and omeprazole according to pH: 71.0
[1]; buffer pH 6.0, 30 min
  assay of esomeprazole and omeprazole according to pH: 68.9
[1]; buffer pH 6.0, 45 min
  assay of esomeprazole and omeprazole according to pH: 66.3
[1]; buffer pH 6.0, 60 min
  assay of esomeprazole and omeprazole according to pH: 63.6
[1]; buffer pH 6.0, 120 min
  assay of esomeprazole and omeprazole according to pH: 54.9
[1]; buffer pH 6.8, 5 min
  assay of esomeprazole and omeprazole according to pH: 95.6
[1]; buffer pH 6.8, 10 min
  assay of esomeprazole and omeprazole according to pH: 90.8
[1]; buffer pH 6.8, 15 min
  assay of esomeprazole and omeprazole according to pH: 90.5
[1]; buffer pH 6.8, 30 min
  assay of esomeprazole and omeprazole according to pH: 89.7
[1]; buffer pH 6.8, 45 min
  assay of esomeprazole and omeprazole according to pH: 88.9
[1]; buffer pH 6.8, 60 min
  assay of esomeprazole and omeprazole according to pH: 88.3
[1]; buffer pH 6.8, 120 min
  assay of esomeprazole and omeprazole according to pH: 86.2
[1]; buffer pH 7.0, 5 min
  assay of esomeprazole and omeprazole according to pH: 99.6
[1]; buffer pH 7.0, 10 min
  assay of esomeprazole and omeprazole according to pH: 99.0
[1]; buffer pH 7.0, 15 min
  assay of esomeprazole and omeprazole according to pH: 99.3
[1]; buffer pH 7.0, 30 min
  assay of esomeprazole and omeprazole according to pH: 98.9
[1]; buffer pH 7.0, 45 min
  assay of esomeprazole and omeprazole according to pH: 98.7
[1]; buffer pH 7.0, 60 min
  assay of esomeprazole and omeprazole according to pH: 98.1
[1]; buffer pH 7.0, 120 min
  assay of esomeprazole and omeprazole according to pH: 96.8
[1]; buffer pH 7.3, 5 min
  assay of esomeprazole and omeprazole according to pH: 100.1
[1]; buffer pH 7.3, 10 min
  assay of esomeprazole and omeprazole according to pH: 100.1
[1]; buffer pH 7.3, 15 min
  assay of esomeprazole and omeprazole according to pH: 100.0
[1]; buffer pH 7.3, 30 min
  assay of esomeprazole and omeprazole according to pH: 100.0
[1]; buffer pH 7.3, 45 min
  assay of esomeprazole and omeprazole according to pH: 100.0
[1]; buffer pH 7.3, 60 min
  assay of esomeprazole and omeprazole according to pH: 100.0
[1]; buffer pH 7.3, 120 min
  assay of esomeprazole and omeprazole according to pH: 99.90
[1]; buffer pH 7.5, 5 min
  assay of esomeprazole and omeprazole according to pH: 99.4
[1]; buffer pH 7.5, 10 min
  assay of esomeprazole and omeprazole according to pH: 99.3
[1]; buffer pH 7.5, 15 min
  assay of esomeprazole and omeprazole according to pH: 99.2
[1]; buffer pH 7.5, 30 min
  assay of esomeprazole and omeprazole according to pH: 99.1
[1]; buffer pH 7.5, 45 min
  assay of esomeprazole and omeprazole according to pH: 99.3
[1]; buffer pH 7.5, 60 min
  assay of esomeprazole and omeprazole according to pH: 99.1
[1]; buffer pH 7.5, 120 min
  assay of esomeprazole and omeprazole according to pH: 98.2
[1]; buffer pH 8.0, 15 min
  assay of esomeprazole and omeprazole according to pH: 101.1
[1]; buffer pH 8.0, 30 min
  assay of esomeprazole and omeprazole according to pH: 100.9
[1]; buffer pH 8.0, 45 min
  assay of esomeprazole and omeprazole according to pH: 100.7
[1]; buffer pH 8.0, 60 min
  assay of esomeprazole and omeprazole according to pH: 100.7
[1]; buffer pH 8.0, 120 min
  assay of esomeprazole and omeprazole according to pH: 100.0

## O=C([O-])O.[Na+] [sodium bi-carbonate, sodium bicarbonate]
[2]; 200 mL simulated gastric juice
  dose of sodium bicarbonate that can neutralize 200 mL of simulated gastric juice to show neutral pH: at least 600 mg
[2]; sodium bicarbonate 500 mg
  pH of simulated gastric juice: 5.77
[2]; sodium bicarbonate 600 mg
  pH of simulated gastric juice: 6.51
[2]; sodium bicarbonate 700 mg
  pH of simulated gastric juice: 7.30
[2]; sodium bicarbonate 800 mg
  pH of simulated gastric juice: 7.30
[2]; sodium bicarbonate 900 mg
  pH of simulated gastric juice: 7.31
[2]; sodium bicarbonate 1,000 mg
  pH of simulated gastric juice: 7.37
[2]; sodium bicarbonate 1,100 mg
  pH of simulated gastric juice: 7.38
[2]; sodium bicarbonate 1,200 mg
  pH of simulated gastric juice: 7.38
[2]; sodium bicarbonate 1,300 mg
  pH of simulated gastric juice: 7.40
